Structures can show the parent of a compound that is named as a salt. Where two headings read alike, the source gives them in different places.

The test system of one series is HTT mRNA. Briefly: RT-qPCR splicing assay, HTT mRNA canonical (CJ) and alternative (AJ) junction. In kind it is cell-based, human. The conditions noted are these: Homo sapiens; for AC50: HTT alternative junction mRNA increase, read-out: HTT AJ (increase in alternative junction mRNA, AC50). An outline of the steps: (§1)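 Canonical and alternative-exon junction isoforms were quantified by RT-qPCR in cell lysates, with ΔCt against a housekeeper (GAPDH/GUSB/PPIA), then ΔΔCt vs DMSO, converted to 2^(−ΔΔCt) and percent response. K562 or A673 cells were exposed for 24 h to 11 concentrations (3-fold, top final 10 uM).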
A general note: Quantitative PCR measures a nucleic acid by following its amplification.

In the next series the test system is MYB mRNA. The series is described as follows: RT-qPCR splicing assay, MYB mRNA canonical (CJ) and alternative (AJ) junction. In kind it is cell-based, human. The settings on record: Homo sapiens; for AC50: MYB alternative junction mRNA increase, read-out: MYB AJ (increase in alternative junction mRNA, AC50). An outline of the steps:
as §1

Another series deals with SMN2 mRNA. The series is described as follows: RT-qPCR splicing assay, SMN2 mRNA. In kind it is cell-based, human. The settings on record: Homo sapiens, canonical junction qPCR panel, Table 4; read-out: SMN2 IC50 (decrease in CJ mRNA levels). An outline of the steps:
as §1

The subject of the next series is Target C. The series is described as follows: RT-qPCR canonical junction panel assay, Target C mRNA. It is filed as cell-based. The settings on record: Table 4, read-out: Target C IC50 (decrease in CJ mRNA levels). An outline of the steps:
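IC50 is the concentration giving 50% CJ decrease, from a 4-parameter logistic fit of percent response; response derived from ΔΔCt against housekeeper and DMSO over a fixed ΔCt window, with canonical exon-junction qPCR in compound-treated K562 or A673 cells.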

The test system of another series is K562 cells. The series is described as follows: Cell Titer Glo 2.0 cell viability (toxicity) assay, K562. The settings on record: 500 cells/well, 72 hours. (In general: Cellular ATP, detected with luciferase, serves as a proxy for viable cell number.)
Where [1] appears, read: RT-qPCR, HTT canonical junction mRNA decrease, read-out: HTT CJ (decrease in canonical junction mRNA, IC50).
The mark [2] stands for this setting: canonical junction qPCR panel, Table 4, read-out: HTT IC50 (decrease in CJ mRNA levels).
Where [3] appears, read: RT-qPCR, MYB canonical junction mRNA decrease, read-out: MYB CJ (decrease in canonical junction mRNA, IC50).
Setting [4] is: canonical junction qPCR panel, Table 4, read-out: MYB IC50 (decrease in CJ mRNA levels).

For orientation: AC50 means the concentration giving half of the maximal activity seen. By IC50 is commonly meant the point on the concentration scale where inhibition reaches its midpoint. As for `COc1cc(-c2ncc3cc(N4C[C@H](C)N[C@@H](C)C4)ccc3n2)cn2cc(C)nc12` [Compound 816], the AC50 in the series with HTT mRNA (RT-qPCR) is 1000 to 10000 nM; with MYB mRNA (RT-qPCR) it was under 100 nM. The IC50 with HTT mRNA (setting [1]) is 1000 to 10000 nM; with HTT mRNA (setting [2]), 1000 to 10000 nM; in the series with MYB mRNA (setting [3]), 100 to 1000 nM; with MYB mRNA (setting [4]), 100 to 1000 nM; in the series on SMN2 mRNA it was under 100 nM; in the series on Target C, over 10000 nM. Also, the “Effect of Exemplary Compounds on Cell Viability, K562” value (“Effect of Exemplary Compounds” for short) with K562 cells was “B (B represents 100-1000 nM)”.
As to `Cc1cn2cc(-c3ncc4cc(N5C[C@H](C)N[C@@H](C)C5)ccc4n3)cc(C#N)c2n1` [Compound 817], the results for the AC50 in the series with HTT mRNA (RT-qPCR) and in the series on MYB mRNA (RT-qPCR) were 1000 to 10000 nM and under 100 nM, respectively. Moreover, the IC50 in the series on HTT mRNA (setting [1]) is 100 to 1000 nM; with HTT mRNA (setting [2]), 100 to 1000 nM; with MYB mRNA (setting [3]) it was under 100 nM; in the series on MYB mRNA (setting [4]), under 100 nM; in the series on SMN2 mRNA, under 100 nM; in the series with Target C it was 1000 to 10000 nM. Besides, in the series on K562 cells, the “Effect of Exemplary Compounds” value is on record as “B (B represents 100-1000 nM)”.
As to `Cc1nc2c(F)cc(-c3ncc4cc(N5C[C@H](C)N[C@@H](C)C5)ccc4n3)cn2n1` [Compound 819, 6-[(3S,5S)-3,5-dimethylpiperazin-1-yl]-2-{8-fluoro-2-methyl-[1,2,4]triazolo[1,5-a]pyridin-6-yl}quinazoline hydrochloride], the figures for the AC50 in the series on HTT mRNA (RT-qPCR) and in the series on MYB mRNA (RT-qPCR) were 1000 to 10000 nM and 100 to 1000 nM, respectively. Also, the IC50 is 1000 to 10000 nM in the series with HTT mRNA (setting [1]); 1000 to 10000 nM in the series with HTT mRNA (setting [2]); 100 to 1000 nM with MYB mRNA (setting [3]); 100 to 1000 nM with MYB mRNA (setting [4]); under 100 nM in the series on SMN2 mRNA; 1000 to 10000 nM in the series with Target C. In the series on K562 cells, the “Effect of Exemplary Compounds” value is reported as “B (B represents 100-1000 nM)”.
Consider `CCc1cn2cc(-c3ncc4cc(N5C[C@H](C)N[C@@H](C)C5)ccc4n3)cc(F)c2n1` [Compound 821], for which the AC50 with HTT mRNA (RT-qPCR) and with MYB mRNA (RT-qPCR) was over 10000 nM throughout. Moreover, the IC50 in the series with HTT mRNA (setting [1]) is over 10000 nM; with HTT mRNA (setting [2]) it was over 10000 nM; in the series on MYB mRNA (setting [3]), 1000 to 10000 nM; in the series with MYB mRNA (setting [4]), 1000 to 10000 nM; with SMN2 mRNA, 100 to 1000 nM; in the series with Target C, over 10000 nM. Besides, in the series with K562 cells, the “Effect of Exemplary Compounds” value is “C (C represents 1000-9999 nM)”.
For the compound `COc1nc(-c2ncc3cc(N4C[C@H](C)N[C@@H](C)C4)ccc3n2)cn2cc(C)nc12` [Compound 823], the concentration at half-maximal activity (AC50) is 1000 to 10000 nM in the series on HTT mRNA (RT-qPCR) and 100 to 1000 nM in the series with MYB mRNA (RT-qPCR). In addition, the IC50 is 1000 to 10000 nM in the series with HTT mRNA (setting [1]); 1000 to 10000 nM with HTT mRNA (setting [2]); 100 to 1000 nM in the series with MYB mRNA (setting [3]); 100 to 1000 nM with MYB mRNA (setting [4]); under 100 nM with SMN2 mRNA; over 10000 nM in the series on Target C. In the series with K562 cells, the “Effect of Exemplary Compounds” value is “B (B represents 100-1000 nM)”.
For `Cc1cn2cc(-c3ncc4cc(N5C[C@H](C)N(C)[C@@H](C)C5)ccc4n3)cc(F)c2n1` [Compound 824], the AC50 is 1000 to 10000 nM in the series on HTT mRNA (RT-qPCR) and 100 to 1000 nM in the series with MYB mRNA (RT-qPCR). Also, the IC50 was 100 to 1000 nM in the series with HTT mRNA (setting [1]); 100 to 1000 nM in the series with HTT mRNA (setting [2]); 100 to 1000 nM in the series on MYB mRNA (setting [3]); 100 to 1000 nM in the series with MYB mRNA (setting [4]); under 100 nM in the series on SMN2 mRNA; 1000 to 10000 nM with Target C. Further, the “Effect of Exemplary Compounds” value in the series with K562 cells is “B (B represents 100-1000 nM)”.
On to `Cc1nc2c(F)cc(-c3ncc4cc(N5C[C@@H](C)N[C@@H](C)C5)ccc4n3)cn2n1` [Compound 825, 6-[(3R,5S)-3,5-dimethylpiperazin-1-yl]-2-{8-fluoro-2-methyl-[1,2,4]triazolo[1,5-a]pyridin-6-yl}quinazoline], for which the figures for the AC50 with HTT mRNA (RT-qPCR) and in the series on MYB mRNA (RT-qPCR) were 1000 to 10000 nM and 100 to 1000 nM, respectively. Further, the IC50 in the series with HTT mRNA (setting [1]) is 1000 to 10000 nM; in the series on HTT mRNA (setting [2]) it was 1000 to 10000 nM; in the series with MYB mRNA (setting [3]) it was 100 to 1000 nM; with MYB mRNA (setting [4]) it was 100 to 1000 nM; in the series with SMN2 mRNA, under 100 nM; in the series on Target C, 1000 to 10000 nM. Besides, the “Effect of Exemplary Compounds” value in the series with K562 cells was “C (C represents 1000-9999 nM)”.
With `Cc1cn2cc(-c3ncc4cc(N5C[C@@H](C)N(C)[C@@H](C)C5)ccc4n3)cc(F)c2n1` [Compound 826, 2-{8-fluoro-2-methylimidazo[1,2-a]pyridin-6-yl}-6-[(3R,5S)-3,4,5-trimethylpiperazin-1-yl]quinazoline], the results for the AC50 with HTT mRNA (RT-qPCR) and in the series on MYB mRNA (RT-qPCR) were 1000 to 10000 nM and under 100 nM, respectively. Moreover, the IC50 in the series on HTT mRNA (setting [1]) was 1000 to 10000 nM; with HTT mRNA (setting [2]), 1000 to 10000 nM; with MYB mRNA (setting [3]) it was 100 to 1000 nM; with MYB mRNA (setting [4]), 100 to 1000 nM; with SMN2 mRNA, under 100 nM; with Target C, 1000 to 10000 nM. Further, in the series on K562 cells, the “Effect of Exemplary Compounds” value is “B (B represents 100-1000 nM)”.

For the origin of these results see patent publication US20250092065A1, “2-(INDAZOL-5-YL)-6-(PIPERIDIN-4-YL)-1,7-NAPHTHYRIDINE DERIVATIVES AND RELATED COMPOUNDS AS MODULATORS FOR SPLICING NUCLEIC ACIDS AND FOR THE TREATMENT OF PROLIFERATIVE DISEASES” (REMIX THERAPEUTICS INC., priority 2022, published 2025).
